Here are results for one compound from patent publication US20220000967A1, “SYNTHETIC PEPTIDES INDUCING IMMUNOGENIC CELL DEATH” (SORBONNE UNIVERSITE, priority 2018, published 2022).

For one data set, the system named is L5178Y-R. Description: Loss of mitochondrial transmembrane potential (TMRE). It counts as cell-based, murine. Particulars: PKHB1 CC50, 2h. As for the experimental part: CEM, MOLT-4 (T-acute lymphoblastic leukemia, T-ALL), and L5178Y-R (murine lymphoblastic T cell line) were obtained from ATCC. Human and murine PBMCs, human CD4+ and CD8+ T cells, and primary lymphoid organ's cells were obtained from healthy individuals. Cells were maintained in RPMI-1640 medium supplemented with 10% of fetal bovine serum, 2 mM L-glutamine, 100 U/mL penicillin-streptomycin (GIBCO by Life Technologies, Grand Island, N.Y., USA), and incubated at 37° C. in a controlled humidified atmosphere with 5% CO2. Cell count was performed using trypan blue (0.4% Sigma-Aldrich), a Neubauer chamber and an optic microscope (Zeiss Primo Star) as proposed by the ATCC's standard protocols. Flow Cytometry. Cell Death Induction, and Inhibition Annexin-V-allophycocyanin (Ann-V-APC 0.1 μg/ml; BD Pharingen, San Jose Calif., USA), propidium iodide (PI, 0.5 μg/ml Sigma-Aldrich), and tetramethylrhodamine ethyl ester (TMRE, 20 nM, Sigma-Aldrich) were used for phosphatidylserine exposure, cell viability, and mitochondrial transmembrane potential (UΨm) quantification, respectively, in a BD AccuryC6 flow cytometer (BD Biosciences) (total population 10,000 cells). Data were analyzed using FlowJo software. 1×10^6 cells/mL were treated for 2h with PKHB1 (as indicated). […]

The subject of data set [1] is murine PBMCs and primary cultures of bone marrow, spleen, thymus and lymph nodes. Nature of the data set: Selectivity on non-cancerous murine cells (Ann/PI, MTT). Conditions: lymph nodes of healthy BALB/c mice. Type of data set: cell-based. Here is the method:
Peripheral blood was collected from 10 healthy volunteers after obtaining written informed consent. This study was approved by the Institutional Ethics Committee at the Universidad Autonoma de Nuevo Leon, College of Biological Sciences. The animal study was approved by the Animal Ethical Committee (CEIBA), Number: 01/2015. All experiments were conducted according to Mexican regulation NOM-062-ZOO-1999. The blood from sacrificed mice was obtained by cardiac puncture, while human blood was collected by venipuncture. Peripheral blood mononuclear cells (PBMCs) isolation was performed by density gradient centrifugation using Ficoll-Hypaque-1119 (Sigma-Aldrich, St Louis, Mo., USA). 4×10^5 white blood cells were washed and seeded. CD4+/CD8+ characterization was done using primary antibodies (CD4; MT310 sc-19641 and CD8; 32-M4 sc-1177, Santa Cruz, Calif., USA).
Spleen, thymus, lymphatic node, and bone marrow cells were obtained from female BALB/c mice post-sacrifice. Spleen cells were obtained through perfusion, thymocytes and lymphatic node cells were obtained by maceration, and bone morrow cells (from one femur and tibia per mouse) were flushed with PBS. Cells washed and counted using trypan blue staining.
CEM, MOLT-4 (T-acute lymphoblastic leukemia, T-ALL), and L5178Y-R (murine lymphoblastic T cell line) were obtained from ATCC. […] Data were analyzed using FlowJo software. […]

`CSCC[C@H](NC(=O)[C@@H](NC(=O)[C@@H](NC(=O)[C@H](Cc1ccc(O)cc1)NC(=O)[C@H](Cc1ccccc1)NC(=O)[C@H](CCCNC(=N)N)NC(=O)[C@H](N)CCCCN)C(C)C)C(C)C)C(=O)N[C@@H](Cc1c[nH]c2ccccc12)C(=O)N[C@@H](CCCCN)C(=O)N[C@H](CCCCN)C(=O)O` [PKHB1, (D)K-R-F-Y-V-V-M-W-K-(D)K]: the “loss of mitochondrial membrane potential” value with L5178Y-R is 51%±8. In addition, the “cell viability of non-cancerous cells” value in data set [1] was “did not significantly affected cell viability”.
